Source: PubChem BioAssay AID200 (DTP/NCI, 2004)
Where “and” joins values, the source holds several entries; their conditions need not be identical. Equal entries are not always repeated. Toxic doses and inconclusive results are not listed.

Test system: B6C3F1 mice, B16 melanoma ip, median survival T/C
Experiment: NCI In Vivo Anticancer Drug Screen. Data for tumor model B16 Melanoma (intraperitoneal) in B6C3F1 mice
Details: endpoint: median survival time, higher = longer survival
Summary of the method: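 Values are T/C ratios: the measurement in treated animals divided by that in vehicle-treated controls, using survival or tumor size in mice carrying transplantable tumors.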

[1] = dose: 12.5 mg/kg/injection, schedule: Q01DX009 (ip), vehicle: saline with Tween-80
[2] = dose: 25.0 mg/kg/injection, schedule: Q01DX009 (ip), vehicle: saline with Tween-80
[3] = dose: 50.0 mg/kg/injection, schedule: Q01DX009 (ip), vehicle: saline with Tween-80
[4] = dose: 100.0 mg/kg/injection, schedule: Q01DX009 (ip), vehicle: saline with Tween-80

COc1cc2cc(c1Cl)N(C)C(=O)CC(OC(=O)C(C)N(C)C(=O)C(C)C)C1(C)OC1C(C)C1CC(O)(NC(=O)O1)C(OC)/C=C/C=C(C)C2OC (stereo not drawn)
T/C (dose: 2.0 micrograms/kg/injection, schedule: Q01DX009 (ip), vehicle: Klucel (hydroxypropylcellulose) (HPC)): 196 % of control
T/C (dose: 4.0 micrograms/kg/injection, schedule: Q01DX009 (ip), vehicle: Klucel (hydroxypropylcellulose) (HPC)): 157 % of control and 165 % of control and 213 % of control
T/C (dose: 4.0 micrograms/kg/injection, schedule: Q01DX009 (ip), vehicle: distilled water + alcohol): 103 % of control
T/C (dose: 8.0 micrograms/kg/injection, schedule: Q01DX009 (ip), vehicle: Klucel (hydroxypropylcellulose) (HPC)): 172 % of control and 185 % of control and 245 % of control
T/C (dose: 8.0 micrograms/kg/injection, schedule: Q01DX009 (ip), vehicle: distilled water + alcohol): 101 % of control
T/C (dose: 16.0 micrograms/kg/injection, schedule: Q01DX009 (ip), vehicle: Klucel (hydroxypropylcellulose) (HPC)): 172 % of control and 194 % of control and 232 % of control
T/C (dose: 16.0 micrograms/kg/injection, schedule: Q01DX009 (ip), vehicle: distilled water + alcohol): 114 % of control
T/C (dose: 32.0 micrograms/kg/injection, schedule: Q01DX009 (ip), vehicle: Klucel (hydroxypropylcellulose) (HPC)): 183 % of control and 207 % of control
T/C (dose: 32.0 micrograms/kg/injection, schedule: Q01DX009 (ip), vehicle: distilled water + alcohol): 119 % of control and 122 % of control
T/C (dose: 64.0 micrograms/kg/injection, schedule: Q01DX009 (ip), vehicle: distilled water + alcohol): 105 % of control
T/C (dose: 128.0 micrograms/kg/injection, schedule: Q01DX009 (ip), vehicle: distilled water + alcohol): 114 % of control

NC(=O)C1=CC2C3C=CC2(O)C(=O)OC3O1 (stereo not drawn)
T/C (dose: 3.75 mg/kg/injection, schedule: Q01DX009 (ip), vehicle: Klucel (hydroxypropylcellulose) (HPC)): 108 % of control and 123 % of control
T/C (dose: 7.5 mg/kg/injection, schedule: Q01DX009 (ip), vehicle: Klucel (hydroxypropylcellulose) (HPC)): 118 % of control and 107 % of control
T/C (dose: 15.0 mg/kg/injection, schedule: Q01DX009 (ip), vehicle: Klucel (hydroxypropylcellulose) (HPC)): 114 % of control and 123 % of control

CCCCC(NC(=O)C(C)NC(=O)OCc1ccccc1)C(=O)O (stereo not drawn)
T/C (dose: 100.0 mg/kg/injection, schedule: Q01DX009 (ip), vehicle: Klucel (hydroxypropylcellulose) (HPC)): 101 % of control
T/C (dose: 200.0 mg/kg/injection, schedule: Q01DX009 (ip), vehicle: Klucel (hydroxypropylcellulose) (HPC)): 99 % of control
T/C (dose: 400.0 mg/kg/injection, schedule: Q01DX009 (ip), vehicle: Klucel (hydroxypropylcellulose) (HPC)): 94 % of control

O=C1CN(CN2CCOCC2)C(=O)CN1CN1CCOCC1
T/C [1]: 88 % of control
T/C [2]: 94 % of control
T/C [3]: 93 % of control
T/C [4]: 102 % of control
T/C (dose: 200.0 mg/kg/injection, schedule: Q01DX009 (ip), vehicle: saline with Tween-80): 100 % of control

[Cl][Pt+2][Cl].[NH-]c1cc(Cl)c(Cl)cc1[NH-]
T/C (dose: 20.0 mg/kg/injection, schedule: Q01DX009 (ip), vehicle: saline with Tween-80): 97 % of control and 107 % of control
T/C (dose: 40.0 mg/kg/injection, schedule: Q01DX009 (ip), vehicle: saline with Tween-80): 110 % of control and 101 % of control
T/C (dose: 80.0 mg/kg/injection, schedule: Q01DX009 (ip), vehicle: saline with Tween-80): 110 % of control and 122 % of control
T/C (dose: 160.0 mg/kg/injection, schedule: Q01DX009 (ip), vehicle: saline with Tween-80): 111 % of control and 105 % of control
T/C (dose: 320.0 mg/kg/injection, schedule: Q01DX009 (ip), vehicle: saline with Tween-80): 110 % of control and 106 % of control

CC(=O)C(=O)O.CC(=O)C(=O)O.[NH-]C1CCCCC1[NH-].[Pt+2] (stereo not drawn)
T/C (dose: 3.12 mg/kg/injection, schedule: Q01DX009 (ip), vehicle: other): 122 % of control

O=C(Nc1cccc2c(OC(=O)C(Cl)Cl)c(N=Nc3ccc(S(=O)(=O)Nc4nccs4)cc3)cc(N=Nc3ccc(S(=O)(=O)Nc4nccs4)cc3)c12)C(Cl)Cl (tested in a mixture with another compound)
T/C (dose: 3.12 mg/kg/injection, schedule: Q01DX009 (ip), vehicle: saline with Tween-80): 104 % of control
T/C (dose: 3.13 mg/kg/injection, schedule: Q01DX009 (ip), vehicle: saline with Tween-80): 94 % of control
T/C (dose: 6.25 mg/kg/injection, schedule: Q01DX009 (ip), vehicle: saline with Tween-80): 115 % of control and 119 % of control and 87 % of control
T/C [1]: 114 % of control and 100 % of control and 104 % of control
T/C [2]: 109 % of control
T/C [3]: 108 % of control
T/C [4]: 95 % of control

CC(C)(C[NH-])C[NH-].[Cl][Pt+2][Cl]
T/C (dose: 0.25 mg/kg/injection, schedule: Q01DX009 (ip), vehicle: water): 111 % of control
T/C (dose: 0.5 mg/kg/injection, schedule: Q01DX009 (ip), vehicle: water): 123 % of control
T/C (dose: 2.0 mg/kg/injection, schedule: Q01DX009 (ip), vehicle: water): 175 % of control
T/C (dose: 2.0 mg/kg/injection, schedule: Q04DX003 (ip), vehicle: water): 168 % of control
T/C (dose: 4.0 mg/kg/injection, schedule: Q04DX003 (ip), vehicle: water): 200 % of control

NC=NCC(=O)O
T/C (dose: 50.0 mg/kg/injection, schedule: Q01DX009 (ip), vehicle: saline): 108 % of control
T/C (dose: 100.0 mg/kg/injection, schedule: Q01DX009 (ip), vehicle: saline): 105 % of control
T/C (dose: 200.0 mg/kg/injection, schedule: Q01DX009 (ip), vehicle: saline): 97 % of control
